One block for each molecule: values may come before it. Active and inactive are the calls of the source. The calls are words filed in the database; no cut-off is given here.
Tests used:
MCF7 [1] = assay: Anticancer activity against human MCF7 cells by SRB method; format: functional
ZR-75-1 = assay: Anticancer activity against human ZR-75-1 cells by SRB method; format: functional
A2780 = assay: Anticancer activity against human A2780 cells by SRB method; format: functional
COLO 205 = assay: Anticancer activity against human COLO205 cells by SRB method; format: functional
SiHa = assay: Anticancer activity against human SiHa cells by SRB method; format: functional
KB = assay: Anticancer activity against human KB cells by SRB method; format: functional
A549 = assay: Anticancer activity against human A549 cells by SRB method; format: functional
Tubulin (Homo sapiens) = Tubulin (Homo sapiens) (UniProt P68371+Q9H4B7+P0DPH7+P68366+Q13509+Q71U36+P04350+Q3ZCM7+P07437+P68363+Q9BQE3+Q6PEY2+Q13885+Q9BVA1+Q9BUF5); assay: Inhibition of tubulin polymerization in human MCF7 cells at 2 uM after 24 hrs by FITC-conjugated immunostaining assay; format: cell-based
MCF7 [2] = assay: Inhibition of HDAC1 protein expression in human MCF7 cells at 2 uM after 24 hrs by Western blotting; format: functional, cell-based
MCF7 [3] = assay: Inhibition of HDAC2 protein expression in human MCF7 cells at 2 uM after 24 hrs by Western blotting; format: functional, cell-based
MCF7 [4] = assay: Inhibition of HDAC3 protein expression in human MCF7 cells at 2 uM after 24 hrs by Western blotting; format: functional, cell-based
MCF7 [5] = assay: Inhibition of HDAC8 protein expression in human MCF7 cells at 2 uM after 24 hrs by Western blotting; format: functional, cell-based
MCF7 [6] = assay: Induction of apoptosis in human MCF7 cells assessed as PARP-cleavage at 8 uM after 24 hrs by Western blot analysis; format: functional, cell-based
MCF7 [7] = assay: Induction of apoptosis in human MCF7 cells assessed as caspase-7 activation at 8 uM after 24 hrs by Western blot analysis; format: functional, cell-based
MCF7 [8] = assay: Anticancer activity against human MCF7 cells assessed as cell death at 2 uM after 24 hrs by MTT assay; format: functional
MCF7 [9] = assay: Induction of cell cycle arrest in human MCF7 cells assessed as accumulation of cells in G0 phase at 2 uM after 24 hrs by flow cytometry relative to untreated control; format: functional
MCF7 [10] = assay: Induction of cell cycle arrest in human MCF7 cells assessed as accumulation of cells in G1 phase at 2 uM after 24 hrs by flow cytometry relative to untreated control; format: functional
MCF7 [11] = assay: Induction of cell cycle arrest in human MCF7 cells assessed as accumulation of cells in S phase at 2 uM after 24 hrs by flow cytometry relative to untreated control; format: functional
MCF7 [12] = assay: Induction of cell cycle arrest in human MCF7 cells assessed as accumulation of cells in G2/M phase at 2 uM after 24 hrs by flow cytometry relative to untreated control; format: functional
MCF7 [13] = assay: Induction of cell cycle arrest in human MCF7 cells assessed as accumulation of cells in G0 phase at 4 uM after 24 hrs by flow cytometry relative to untreated control; format: functional
MCF7 [14] = assay: Induction of cell cycle arrest in human MCF7 cells assessed as accumulation of cells in G1 phase at 4 uM after 24 hrs by flow cytometry relative to untreated control; format: functional
MCF7 [15] = assay: Induction of cell cycle arrest in human MCF7 cells assessed as accumulation of cells in S phase at 4 uM after 24 hrs by flow cytometry relative to untreated control; format: functional
MCF7 [16] = assay: Induction of cell cycle arrest in human MCF7 cells assessed as accumulation of cells in G2/M phase at 4 uM after 24 hrs by flow cytometry relative to untreated control; format: functional
MCF7 [17] = assay: Induction of cell cycle arrest in human MCF7 cells assessed as accumulation of cells in G0 phase at 8 uM after 24 hrs by flow cytometry relative to untreated control; format: functional
MCF7 [18] = assay: Induction of cell cycle arrest in human MCF7 cells assessed as accumulation of cells in G1 phase at 8 uM after 24 hrs by flow cytometry relative to untreated control; format: functional
MCF7 [19] = assay: Induction of cell cycle arrest in human MCF7 cells assessed as accumulation of cells in S phase at 8 uM after 24 hrs by flow cytometry relative to untreated control; format: functional
MCF7 [20] = assay: Induction of cell cycle arrest in human MCF7 cells assessed as accumulation of cells in G2/M phase at 8 uM after 24 hrs by flow cytometry relative to untreated control; format: functional
MCF7 [21] = assay: Induction of cell cycle arrest in human MCF7 cells assessed as accumulation of cells in G0 phase at 2 uM after 24 hrs by flow cytometry (reference value: 2.9%); format: functional
MCF7 [22] = assay: Induction of cell cycle arrest in human MCF7 cells assessed as accumulation of cells in G1 phase at 2 uM after 24 hrs by flow cytometry (reference value: 46%); format: functional
MCF7 [23] = assay: Induction of cell cycle arrest in human MCF7 cells assessed as accumulation of cells in S phase at 2 uM after 24 hrs by flow cytometry (reference value: 14.87%); format: functional
MCF7 [24] = assay: Induction of cell cycle arrest in human MCF7 cells assessed as accumulation of cells in G2/M phase at 2 uM after 24 hrs by flow cytometry (reference value: 36.23%); format: functional
MCF7 [25] = assay: Induction of cell cycle arrest in human MCF7 cells assessed as accumulation of cells in G0 phase at 4 uM after 24 hrs by flow cytometry (reference value: 3.22%); format: functional
MCF7 [26] = assay: Induction of cell cycle arrest in human MCF7 cells assessed as accumulation of cells in G1 phase at 4 uM after 24 hrs by flow cytometry (reference value: 65.58%); format: functional
MCF7 [27] = assay: Induction of cell cycle arrest in human MCF7 cells assessed as accumulation of cells in S phase at 4 uM after 24 hrs by flow cytometry (reference value: 5.55%); format: functional
MCF7 [28] = assay: Induction of cell cycle arrest in human MCF7 cells assessed as accumulation of cells in G2/M phase at 4 uM after 24 hrs by flow cytometry (reference value: 25.65%); format: functional
MCF7 [29] = assay: Induction of cell cycle arrest in human MCF7 cells assessed as accumulation of cells in G0 phase at 8 uM after 24 hrs by flow cytometry (reference value: 3.22%); format: functional
MCF7 [30] = assay: Induction of cell cycle arrest in human MCF7 cells assessed as accumulation of cells in G1 phase at 8 uM after 24 hrs by flow cytometry (reference value: 65.58%); format: functional
MCF7 [31] = assay: Induction of cell cycle arrest in human MCF7 cells assessed as accumulation of cells in S phase at 8 uM after 24 hrs by flow cytometry (reference value: 5.55%); format: functional
MCF7 [32] = assay: Induction of cell cycle arrest in human MCF7 cells assessed as accumulation of cells in G2/M phase at 8 uM after 24 hrs by flow cytometry (reference value: 25.65%); format: functional

GI50 (MCF7 [1]): 180 nM
GI50 (A2780): 2070 nM
GI50 (COLO 205): 24000 nM
GI50 (KB): 2300 nM
Structure (SMILES): COc1cc2c(cc1OCCCCOc1ccc(C(c3c[nH]c4ccccc34)c3c[nH]c4ccccc34)cc1)N=C[C@@H]1CCCN1C2=O
GI50 (ZR-75-1): 26500 nM
GI50 (SiHa): 2490 nM

GI50 (MCF7 [1]): 140 nM
GI50 (A2780): 2460 nM
GI50 (A549): 29000 nM
Structure (SMILES): COc1cc2c(cc1OCCCCCCOc1ccc(C(c3c[nH]c4ccccc34)c3c[nH]c4ccccc34)cc1)N=C[C@@H]1CCCN1C2=O

GI50 (MCF7 [1]): < 100 nM
GI50 (A2780): < 100 nM
GI50 (COLO 205): 14700 nM
GI50 (A549): 13000 nM
GI50 (KB): 160 nM
Structure (SMILES): COc1cccc2c1C(=O)c1c(O)c3c(c(O)c1C2=O)C[C@@](O)(C(=O)CO)C[C@@H]3O[C@H]1C[C@H](N)[C@H](O)[C@H](C)O1 [DOXORUBICIN]
GI50 (ZR-75-1): < 100 nM
GI50 (SiHa): 1900 nM

Structure (SMILES): COc1cc2c(cc1O)N=C[C@@H]1CCCN1C2=O
inhibition (Tubulin (Homo sapiens)): inactive
inhibition (MCF7 [2]): Active
inhibition (MCF7 [3]): Active
inhibition (MCF7 [4]): Active
inhibition (MCF7 [5]): Active
Activity (MCF7 [6]): Active
Activity (MCF7 [7]): Active
GI50 (MCF7 [1]): 170 nM
GI50 (A2780): 140 nM
GI50 (COLO 205): 110 nM
GI50 (SiHa): 160 nM
GI50 (A549): 160 nM
GI50 (KB): 170 nM
Activity (MCF7 [8]): Active
Activity (MCF7 [9]): 3.14%
Activity (MCF7 [10]): 55.11%
Activity (MCF7 [11]): 8.02%
Activity (MCF7 [12]): 33.79%
Activity (MCF7 [13]): 9.27%
Activity (MCF7 [14]): 70.84%
Activity (MCF7 [15]): 8.56%
Activity (MCF7 [16]): 11.31%
Activity (MCF7 [17]): 29.68%
Activity (MCF7 [18]): 57.74%
Activity (MCF7 [19]): 4.53%
Activity (MCF7 [20]): 8.05%
Activity (MCF7 [21]): 3.72%
Activity (MCF7 [22]): 53.62%
Activity (MCF7 [23]): 8.26%
Activity (MCF7 [24]): 34.4%
Activity (MCF7 [25]): 9.56%
Activity (MCF7 [26]): 69.54%
Activity (MCF7 [27]): 9.57%
Activity (MCF7 [28]): 11.33%
Activity (MCF7 [29]): 30.04%
Activity (MCF7 [30]): 58.22%
Activity (MCF7 [31]): 4.59%
Activity (MCF7 [32]): 7.15%

Reference: ChEMBL document CHEMBL1938244, “Synthesis, anticancer activity and apoptosis inducing ability of bisindole linked pyrrolo[2,1-c][1,4]benzodiazepine conjugates” (2012)
